Results on 20 compounds are retold here after ChEMBL document CHEMBL1136220, “Synthesis and cytotoxic activity of A-ring modified betulinic acid derivatives” (2003).

≈ marks a conversion by molar mass, not a printed value.

Common to all, as to format: functional
Assay [1] concerns SK-MEL-2. The assay can be described thus: Cytotoxic activity towards M2 cells (SK-MEL-2). As to conditions: Homo sapiens, read-out: ED50 (the source's name).
For assay [2], the system named is A549. The assay can be described thus: Cytotoxic activity towards A-549 cells. As to conditions: Homo sapiens, read-out: ED50 (the source's name).
For assay [3], the system named is B16-F10. The experiment in a line: Cytotoxic activity towards B16-F10 cells. To be noted: Mus musculus, read-out: ED50 (the source's name).

For `COC(=O)[C@]12CC[C@@H](C(C)C)C1C1CCC3[C@]4(C)C(CC[C@@]3(C)[C@]1(C)CC2)C(C)(C)C(=O)[C@@H]1O[C@@H]14` (stereo not given in full), the EC50 in assay [1], in assay [2] and in assay [3] was more than 30 µg/mL throughout.

In the case of `CC(C)[C@@H]1CC[C@]2(C(=O)O)CC[C@]3(C)C(CC[C@@H]4[C@@]5(C)C=CC(=O)C(C)(C)C5CC[C@]43C)C12` (stereo not given in full), the EC50 in assay [1] stood at 2.29 µg/mL (≈ 5.04 µM); in assay [2], 2.89 µg/mL (≈ 6.36 µM); in assay [3], 1.75 µg/mL (≈ 3.85 µM).

`CC(C)[C@@H]1CC[C@]2(C(=O)O)CC[C@]3(C)C(CC[C@@H]4[C@@]5(C)CC(C=O)=C(O)C(C)(C)C5CC[C@]43C)C12` (stereo not given in full): the EC50 in assay [1] was determined as 3.76 µg/mL (≈ 7.76 µM); in assay [2], 2.2 µg/mL (≈ 4.54 µM); in assay [3], 1.66 µg/mL (≈ 3.42 µM).

On to `COC(=O)[C@]12CC[C@@H](C(C)C)C1C1CC[C@@H]3[C@@]4(C)C=CC(=O)C(C)(C)C4CC[C@@]3(C)[C@]1(C)CC2` (stereo not given in full), for which the EC50 in assay [1], in assay [2] and in assay [3] was more than 30 µg/mL each time.

Regarding `C=C(C)[C@@H]1CC[C@]2(C(=O)OC)CC[C@]3(C)C(CC[C@@H]4[C@@]5(C)CC(C=O)=C(O)C(C)(C)C5CC[C@]43C)C12` (stereo not given in full), the EC50 in assay [1], in assay [2] and in assay [3] was more than 30 µg/mL throughout.

For the compound `C=C(C)[C@@H]1CC[C@]2(C(=O)OC)CC[C@]3(C)C(CC[C@@H]4[C@@]5(C)C=C(C#N)C(=O)C(C)(C)C5CC[C@]43C)C12` (stereo not given in full), the EC50 was determined as 2.12 µg/mL (≈ 4.31 µM) in assay [1], 4.55 µg/mL (≈ 9.25 µM) in assay [2] and 3.57 µg/mL (≈ 7.26 µM) in assay [3].

In the case of `COC(=O)[C@]12CC[C@@H](C(C)C)C1C1CC[C@@H]3[C@@]4(C)Cc5cnoc5C(C)(C)C4CC[C@@]3(C)[C@]1(C)CC2` (stereo not given in full), the EC50 in assay [1], in assay [2] and in assay [3] was more than 30 µg/mL throughout.

As for `C=C(C)[C@@H]1CC[C@]2(C(=O)O)CC[C@]3(C)C(CC[C@@H]4[C@@]5(C)CC(C=O)=C(O)C(C)(C)C5CC[C@]43C)C12` (stereo not given in full), the values for the EC50 in assay [1], in assay [2] and in assay [3] were more than 30 µg/mL, 2.76 µg/mL (≈ 5.72 µM) and more than 30 µg/mL, respectively.

In the case of `CC(C)[C@@H]1CC[C@]2(C(=O)O)CC[C@]3(C)C(CC[C@@H]4[C@@]5(C)Cc6cnoc6C(C)(C)C5CC[C@]43C)C12` (stereo not given in full), the EC50 was 1.15 µg/mL (≈ 2.39 µM) in assay [1], 2.7 µg/mL (≈ 5.6 µM) in assay [2] and 1.57 µg/mL (≈ 3.26 µM) in assay [3].

`COC(=O)[C@]12CC[C@@H](C(C)C)C1C1CC[C@@H]3[C@@]4(C)C=C(C=O)C(=O)C(C)(C)C4CC[C@@]3(C)[C@]1(C)CC2` (stereo not given in full): the EC50 in assay [1] was 0.73 µg/mL (≈ 1.47 µM); in assay [2] it was 0.31 µg/mL (≈ 0.624 µM); in assay [3], 0.29 µg/mL (≈ 0.584 µM).

Take `CC(C)[C@@H]1CC[C@]2(C(=O)O)CC[C@]3(C)C(CC[C@@H]4[C@@]5(C)C=C(Cl)C(=O)C(C)(C)C5CC[C@]43C)C12` (stereo not given in full): the EC50 in assay [1] is 0.13 µg/mL (≈ 0.266 µM); in assay [2], 1.01 µg/mL (≈ 2.06 µM); in assay [3], 1.55 µg/mL (≈ 3.17 µM).

With `CC(C)[C@@H]1CC[C@]2(C(=O)O)CC[C@]3(C)C(CC[C@@H]4[C@@]5(C)C=C(C#N)C(=O)C(C)(C)C5CC[C@]43C)C12` (stereo not given in full), the EC50 stood at 0.81 µg/mL (≈ 1.69 µM) in assay [1], 1.32 µg/mL (≈ 2.75 µM) in assay [2] and 1.43 µg/mL (≈ 2.98 µM) in assay [3].

With `COC(=O)[C@]12CC[C@@H](C(C)C)C1C1CC[C@@H]3[C@@]4(C)C=C(OC)C(=O)C(C)(C)C4CC[C@@]3(C)[C@]1(C)CC2` (stereo not given in full), the EC50 in assay [1], in assay [2] and in assay [3] was more than 30 µg/mL in each case.

Consider `COC(=O)[C@]12CC[C@@H](C(C)C)C1C1CC[C@@H]3[C@@]4(C)C=C(C#N)C(=O)C(C)(C)C4CC[C@@]3(C)[C@]1(C)CC2` (stereo not given in full), for which the EC50 was determined as 1.25 µg/mL (≈ 2.53 µM) in assay [1], 13 µg/mL (≈ 26.3 µM) in assay [2] and 0.8 µg/mL (≈ 1.62 µM) in assay [3].

Regarding `C=C(C)[C@@H]1CC[C@]2(C(=O)O)CC[C@]3(C)C(CC[C@@H]4[C@@]5(C)Cc6cnoc6C(C)(C)C5CC[C@]43C)C12` (stereo not given in full), the EC50 came out at 16.6 µg/mL (≈ 34.6 µM) in assay [1], 1.54 µg/mL (≈ 3.21 µM) in assay [2] and 3.11 µg/mL (≈ 6.48 µM) in assay [3].

On to `C=C(C)[C@@H]1CC[C@]2(C(=O)OC)CC[C@]3(C)C(CC[C@@H]4[C@@]5(C)Cc6cnoc6C(C)(C)C5CC[C@]43C)C12` (stereo not given in full), for which the EC50 in assay [1], in assay [2] and in assay [3] was more than 30 µg/mL in each case.

With `CC(C)[C@@H]1CC[C@]2(C(=O)O)CC[C@]3(C)C(CC[C@@H]4[C@@]5(C)C=C(C=O)C(=O)C(C)(C)C5CC[C@]43C)C12` (stereo not given in full), the EC50 in assay [1] stood at 0.26 µg/mL (≈ 0.539 µM); in assay [2], 0.17 µg/mL (≈ 0.352 µM); in assay [3], 0.3 µg/mL (≈ 0.621 µM).

`COC(=O)[C@]12CC[C@@H](C(C)C)C1C1CC[C@@H]3[C@@]4(C)CC(C=O)=C(O)C(C)(C)C4CC[C@@]3(C)[C@]1(C)CC2` (stereo not given in full): the EC50 in assay [1], in assay [2] and in assay [3] was more than 30 µg/mL throughout.

For `COC(=O)[C@]12CC[C@@H](C(C)C)C1C1CC[C@@H]3[C@@]4(C)C=C(Cl)C(=O)C(C)(C)C4CC[C@@]3(C)[C@]1(C)CC2` (stereo not given in full), the EC50 in assay [1], in assay [2] and in assay [3] was more than 30 µg/mL each time.

Consider `C=C(C)[C@@H]1CC[C@]2(C(=O)O)CC[C@]3(C)[C@H](CC[C@@H]4[C@@]5(C)CC[C@H](O)C(C)(C)[C@@H]5CC[C@]43C)[C@@H]12` [BETULINIC ACID], for which the results for the EC50 in assay [1], in assay [2] and in assay [3] were 7.62 µg/mL (≈ 16.7 µM), 7.7 µg/mL (≈ 16.9 µM) and 4.98 µg/mL (≈ 10.9 µM), respectively.
